Results: US7820650B2, “Antifungal 4-substituted 5,6-dihydro-4H-pyrrolo [1,2-a][1,4]benzodiazepines” (Janssen Pharmaceutica NV, priority 2000, dated 2010)

Columns and labels:
Test in all cases: Determination of fungal susceptibility (MIC, microdilution in CYG medium)
Type in all cases: cell-based
[1] = system: Candida parapsilosis; settings: single isolate, 2 days at 37° C., growth (OD 405 nm) inhibited to 35% of control or less
Protocol: (§1) A panel single isolates of the dermatophytes Sporothrix schenckii; Microsporum canis; Trichophyton rubrum; Trichophyton mentagrophyte; Candida parapsilosis; Cryptococcus neoformans; and Aspergillus fumigatus were used to evaluate the activity of the test compounds in vitro. Inocula were prepared as broth cultures (yeasts) or as suspensions of fungal material made from agar slope cultures (moulds). The test compounds were pipetted from dimethylsulfoxide stock solution into water to provide a series of 10-fold dilutions. The fungal inocula were suspended in the growth medium CYG (F.C. Odds, Journal of Clinical Microbiology, 29, 2735-2740, 1991) at approximately 50,000 colony-forming units (CFU) per ml and added to the aqueous test drugs. The cultures were set up in the 96 wells of plastic microdilution plates and they were incubated for 2 days at 37° C. (Candida spp.) or for 5 days at 30° C. (other fungi). Growth in the microcultures was measured by their optical density (OD) measured at a wavelength of 405 nm. The OD for cultures with test compounds was calculated as a percentage of the OD for control cultures, i.e. the OD for cultures without test compounds. Inhibition of growth to 35% of control or less was recorded as significant inhibition. Minimal inhibitory concentration (MIC; in 10^−6 M) of some of the compounds of formula (I) for the tested species are listed in Table.

[2] = system: Trichophyton rubrum; settings: single isolate, 5 days at 30° C., growth (OD 405 nm) inhibited to 35% of control or less
Protocol: as §1

[3] = system: Microsporum canis; settings: single isolate, 5 days at 30° C., growth (OD 405 nm) inhibited to 35% of control or less
Protocol: as §1

[4] = system: Cryptococcus neoformans; settings: single isolate, 5 days at 30° C., growth (OD 405 nm) inhibited to 35% of control or less
Protocol: as §1

[5] = system: Aspergillus fumigatus; settings: single isolate, 5 days at 30° C., growth (OD 405 nm) inhibited to 35% of control or less
Protocol: as §1

[6] = system: Trichophyton mentagrophytes; settings: single isolate, 5 days at 30° C., growth (OD 405 nm) inhibited to 35% of control or less
Protocol: as §1

[7] = system: Sporothrix schenckii; settings: single isolate, 5 days at 30° C., growth (OD 405 nm) inhibited to 35% of control or less
Protocol: as §1

| Structure (SMILES) | MIC values, Candida parapsilosis [1] | MIC values, Trichophyton rubrum [2] | MIC values, Microsporum canis [3] | MIC values, Cryptococcus neoformans [4] | MIC values, Aspergillus fumigatus [5] | MIC values, Trichophyton mentagrophytes [6] | MIC values, Sporothrix schenkii [7] |
| --- | --- | --- | --- | --- | --- | --- | --- |
| Br.Cc1ccc(C2NCc3ccc(Cl)cc3-n3cccc32)cc1 (stereo not drawn) [Comp. 19] | >10 10^−6 M | 0.32 10^−6 M | 10 10^−6 M | >10 10^−6 M | >10 10^−6 M | 3.2 10^−6 M | >10 10^−6 M |
| Br.N#Cc1ccc(C2NCc3ccc(Cl)cc3-n3cccc32)cc1 (stereo not drawn) [Comp. 20] | >10 10^−6 M | 0.32 10^−6 M | >10 10^−6 M | >10 10^−6 M | >10 10^−6 M | >10 10^−6 M | >10 10^−6 M |
| CCc1ccc(C2=NCc3ccccc3-n3cccc32)cc1 [Comp. 21] | 3.2 10^−6 M | 0.03 10^−6 M | 0.32 10^−6 M | >10 10^−6 M | 1 10^−6 M | 0.32 10^−6 M | 10 10^−6 M |
